{"source": "patent US20120178763A1", "about": "“Method of Treating Anxious Major Depressive Disorder” (priority 2008, published 2012)", "key": {"Male Sprague Dawley rats": {"test_system": "Male Sprague Dawley rats", "assay": "Learned helplessness procedure", "type": "in vivo, rat", "conditions": "for Mean Center Crossings ± SEM: gauge of motor activity; for Mean Escape Failures ± (SEM): of 50 trials", "procedure": "Male Sprague Dawley rats were exposed to inescapable electrical stimulation for 2 successive, daily 1 hour periods (conditioning), and then subsequently trained to avoid or escape the electrical stimulation by running to the opposite side of the test cage. […] In the training phase, when the electrical stimulation was escapable, the number of escape failures was recorded. Standard shuttle cages (20 L×16 W×21 centimeters H) fitted with a grid floor were used. The chambers could be partitioned with a closed partition or with an archway that allowed the animals to pass between the 2 sides of the cage. A computer controlled and monitored all events in the chamber.\nThe procedure utilized involved an induction phase and an avoidance training phase. In the induction phase, rats were enclosed in one side of the shuttle cage and electrical stimulation (2 mA, […]) was delivered to the floor of the cage every 2, 5 or 10 seconds (randomly selected for each trial) until 90 electrical stimulations were delivered. Subjects had no opportunity to escape or to avoid the electrical stimulation. Induction was conducted for 2 consecutive days. In the avoidance training phase, a partition with an arch through which the rats could pass was inserted into the center of the shuttle cages. The method employed a standard shuttle avoidance in which a compound, conditioned stimulus (a 5 second presentation of a tone and turning on of a lamp on the side of the rat containing cage) served to indicate impending presentation of electrical stimulation to the floor of the cage. The electrical stimulation was presented for a 5 second period 5 seconds after initiation of the conditioned stimulus. […] A 30 second inter-trial interval was employed. 40 minute avoidance training sessions, consisting of 50 trials were conducted on 2 consecutive days, beginning 48 hours after the final induction session.\nDosages of all compounds are reported as the free base. […] Drug was administered immediately following conditioning and training sessions and approximately 7-8 hrs after the first injection, as well as on the day in the middle of the study when no conditioning or training was conducted. In study 2, imipramine was administered 30 minutes prior to avoidance training whereas in all other circumstances, drug was administered following training.\nThe primary dependent variable was escape failures during avoidance training. […] T-Tests were used to compare the performance of the vehicle-administered group to drug treated groups. The no-induction group was used to gauge whether learned helplessness was established, by comparison to the vehicle treated group."}, "rats": {"test_system": "rats", "assay": "Punished responding procedure (modified Geller-Seifter conflict test)", "conditions": "for Rate of responding, Punished responding / Rate of responding, Unpunished responding: 60 minute pretreatment", "description": "In the conflict test, hungry animals were trained to lever-press for food delivery in a standard operant chamber under 2 conditions. In the first condition, referred to as the unsuppressed component, food was delivered on average after 17 lever-presses were made (also called a VR17 schedule of reinforcement). In the second condition, referred to as the suppressed component and signaled by flashing lights inside the operant chamber, food was also delivered following an average of 17 lever-presses, but electric shock was additionally delivered to the floor of the cage under a separate VR17 schedule. Daily sessions consisted of 5 alternating presentations of each component type: suppressed (3 minutes in duration) and unsuppressed (2 minutes in duration).\nCompound A was dissolved in distilled deionized water/lactic acid and was administered by mouth in a volume of 1 mL/kg body weight. […] Compound A was administered on Tuesday and Friday and vehicle on Thursday. Monday and Wednesday were washout/baseline days.\nStandard 2-lever operant chambers were used (Med Associates). The chambers were fitted with 2 retractable response levers and a stimulus lamp over each of the 2 levers. A pellet dispenser delivered 45 mg food pellets, (Bio Serv) to a cup located inside of the chamber below and between the 2 response levers. A lamp at the top and back of the chamber served as houselights. The grid floors of the operant chambers were interfaced to shock generators and scramblers (Med Associates). All events in the chambers were controlled and monitored by a microprocessor.\nThere were 2 components in the procedure: 1) an unsuppressed responding component (unpunished) with 2 minutes in duration; and 2) a suppressed responding component (punished) with 3 minutes in duration.\nIn the unpunished component, the houselights and both stimulus lamps over the response levers were turned on, the lever on the left-hand side of the chamber extended, and a food pellet was delivered following an average of 17 responses on the lever in the chamber (range 3 to 40 responses)—a variable-ratio 17 schedule (VR17).\nIn the punished component (which followed the unpunished component), the right-hand lever was extended into the chamber; the stimulus lamps and houselights were turned on and off at 1 second intervals, in succession, which served as a cue for this component; and food was available under a VR17 schedule, but was accompanied by an electrical current (0.5 second duration) that was delivered to the grid floor of the chamber under an independent VR17 schedule. The level of the current was adjusted for each individual subject until responding was reduced in the punished component to a level that was about 5% to 10% that of the unpunished component, and ranged from 0.2 mA to 0.75 mA. Unpunished and punished components were separated by 10 second time-out periods in which both response levers were retracted and all stimulus lamps turned off 2 minute unpunished and 3 minute punished components alternated until 5 of each were completed. Daily sessions always began with the unpunished responding component. […] Several doses were tested on a given test day in different subjects. Each dose, then, was tested in different sub-set of rats.\nThe dependent variables recorded were the rate of responding in unpunished and punished components (total responses/total time under the component) and the number of shocks delivered."}, "[1]": {"assay": "Efficacious mean plasma exposure in rodent tests of anxiolysis and antidepressant activity", "type": "in vivo", "conditions": "rodents; separate tests of anxiolysis and antidepressant activity"}}, "note": "Entries after “also recorded” stand apart in the source; their conditions may differ.", "data": [{"smiles": "CCN(CC)C(=O)c1ccc([C@H](c2cccc(N)c2)N2CCN(Cc3ccc(F)cc3)CC2)cc1", "note": "[Example 2, 4-{(R)-(3-aminophenyl)[4-(4-fluorobenzyl)piperazin-1-yl]methyl}-N,N-diethylbenzamide]", "values": [{"measurement": "Mean Center Crossings ± SEM", "setting": "Male Sprague Dawley rats; 0.1 mg/kg by mouth twice a day", "value": "26.6 (0.85)"}, {"measurement": "Mean Escape Failures ± (SEM)", "setting": "Male Sprague Dawley rats; 0.1 mg/kg by mouth twice a day", "value": "6.1 (3.4)"}, {"measurement": "Mean Center Crossings ± SEM", "setting": "Male Sprague Dawley rats; 1 mg/kg by mouth twice a day", "value": "30.9 (2.9)"}, {"measurement": "Mean Escape Failures ± (SEM)", "setting": "Male Sprague Dawley rats; 1 mg/kg by mouth twice a day", "value": "3.1 (1.7)"}, {"measurement": "Mean Center Crossings ± SEM", "setting": "Male Sprague Dawley rats; 10 mg/kg by mouth twice a day", "value": "26.9 (0.7)"}, {"measurement": "Mean Escape Failures ± (SEM)", "setting": "Male Sprague Dawley rats; 10 mg/kg by mouth twice a day", "value": "4.9 (2)"}, {"measurement": "effect on escape failures", "setting": "Male Sprague Dawley rats; 0.1, 1 and 10 mg/kg by mouth twice a day, only the 2 higher doses significant, listed as Compound A", "value": "tended to decrease escape failures; also recorded: produced a decrease in escape failures"}, {"measurement": "Percent of control, Punished responding", "setting": "rats; 0.21 μmol/kg by mouth", "value": "107 ± 19.3% of control"}, {"measurement": "Percent of control, Unpunished responding", "setting": "rats; 0.21 μmol/kg by mouth", "value": "103 ± 1.63% of control"}, {"measurement": "effect on punished responding", "setting": "rats; 0.21 μmol/kg by mouth", "value": "not effective"}, {"measurement": "Rate of responding, Punished responding", "setting": "rats; 0.21 μmol/kg by mouth", "value": "0.11 ± 0.02"}, {"measurement": "Rate of responding, Unpunished responding", "setting": "rats; 0.21 μmol/kg by mouth", "value": "2.06 ± 0.11"}, {"measurement": "Percent of control, Punished responding", "setting": "rats; 0.63 μmol/kg by mouth", "value": "273 ± 39.2% of control"}, {"measurement": "Percent of control, Unpunished responding", "setting": "rats; 0.63 μmol/kg by mouth", "value": "92.1 ± 5.12% of control"}, {"measurement": "Rate of responding, Punished responding", "setting": "rats; 0.63 μmol/kg by mouth", "value": "0.24 ± 0.03"}, {"measurement": "Rate of responding, Unpunished responding", "setting": "rats; 0.63 μmol/kg by mouth", "value": "2.02 ± 0.14"}, {"measurement": "Percent of control, Punished responding", "setting": "rats; 2.1 μmol/kg by mouth", "value": "298 ± 132% of control"}, {"measurement": "Percent of control, Unpunished responding", "setting": "rats; 2.1 μmol/kg by mouth", "value": "106 ± 5.60% of control"}, {"measurement": "Rate of responding, Punished responding", "setting": "rats; 2.1 μmol/kg by mouth", "value": "0.18 ± 0.04"}, {"measurement": "Rate of responding, Unpunished responding", "setting": "rats; 2.1 μmol/kg by mouth", "value": "1.95 ± 0.15"}, {"measurement": "increase in punished responding (maximal efficacy)", "setting": "rats; 2.11 μmol/kg by mouth", "value": "about 300%"}, {"measurement": "Percent of control, Punished responding", "setting": "rats; 6.3 μmol/kg by mouth", "value": "207 ± 67.2% of control"}, {"measurement": "Percent of control, Unpunished responding", "setting": "rats; 6.3 μmol/kg by mouth", "value": "106 ± 2.94% of control"}, {"measurement": "Rate of responding, Punished responding", "setting": "rats; 6.3 μmol/kg by mouth", "value": "0.17 ± 0.03"}, {"measurement": "Rate of responding, Unpunished responding", "setting": "rats; 6.3 μmol/kg by mouth", "value": "1.92 ± 0.13"}, {"measurement": "Percent of control, Punished responding", "setting": "rats; 21.1 μmol/kg by mouth", "value": "272 ± 100% of control"}, {"measurement": "Percent of control, Unpunished responding", "setting": "rats; 21.1 μmol/kg by mouth", "value": "95.5 ± 4.08% of control"}, {"measurement": "Rate of responding, Punished responding", "setting": "rats; 21.1 μmol/kg by mouth", "value": "0.20 ± 0.04"}, {"measurement": "Rate of responding, Unpunished responding", "setting": "rats; 21.1 μmol/kg by mouth", "value": "1.69 ± 0.12"}, {"measurement": "effect on rate of punished responding", "setting": "rats; 0.63, 2.11, 6.3, and 21.1 μmol/kg compared to vehicle controls", "value": "increased the rate of punished responding"}, {"measurement": "effect on unpunished responding", "setting": "rats; at the doses tested (0.21 to 21 μmol/kg)", "value": "did not significantly decrease unpunished responding"}, {"measurement": "acute anxiolytic activity", "setting": "rats; modified Geller-Seifter conflict model", "value": "has acute anxiolytic activity"}, {"measurement": "sedative/hyperactive properties", "setting": "rats; observations of test subjects in their home cage", "value": "does not possess sedative/hyperactive properties"}]}, {"smiles": "CCN(CC)C(=O)c1ccc([C@H](c2cccc(N)c2)N2CCN(Cc3ccc(F)cc3)CC2)cc1.CCN(CC)C(=O)c1ccc([C@H](c2cccc(N)c2)N2CCN(Cc3ccc(F)cc3)CC2)cc1.O=C(O)/C=C/C(=O)O.O=C(O)/C=C/C(=O)O.O=C(O)/C=C/C(=O)O", "note": "[Example 3, 4-{(R)-(3-aminophenyl)[4-(4-fluorobenzyl)piperazin-1-yl]methyl}-N,N-diethylbenzamide sesquifumarate]", "values": [{"measurement": "mean plasma exposures shown to be efficacious", "setting": "[1]", "value": "≥ 2", "unit": "ng/mL"}]}, {"smiles": "CN(C)CCCN1c2ccccc2CCc2ccccc21", "note": "[Imipramine, imipramine, reference compound]", "values": [{"measurement": "Mean Escape Failures ± (SEM)", "setting": "Male Sprague Dawley rats; 20 mg/kg by mouth twice a day", "value": "2.3 (1)"}]}, {"smiles": "CN1C(=O)CN=C(c2ccccc2)c2cc(Cl)ccc21", "note": "[diazepam, reference compound]", "values": [{"measurement": "level of efficacy in the conflict model (punished responding)", "setting": "rats; 3.5 μmol/kg by mouth, data not shown", "value": "~250", "unit": "%"}]}]}
